Assays:
red blood cells = details: 100 μg/ml peptide; ref de Latour et al., 2010; Dean et al., 2011; cited from earlier work
[1] = test system: P. aeruginosa (ATCC 19429); assay: Galleria mellonella infection by P. aeruginosa, treatment survival; assay type: in vivo; details: 1 × 10^3 CFU P. aeruginosa, single dose 5 μg ciprofloxacin

Row | Compound | hemolysis (red blood cells) | effectiveness at prolonging survival vs infected control, in words [1]
1 | ATRA | no significant hemolysis | –
2 | O=C(O)c1cn(C2CC2)c2cc(N3CCNCC3)c(F)cc2c1=O [ciprofloxacin] | – | effective

From PMC3131519 (Frontiers in Microbiology, 2011)
